Data from patent publication US20260055118A1, “VISIBLE LIGHT SENSITIVE PHOTOREMOVABLE PROTECTING GROUPS, PREPARATION PROCESS THEREOF, PHOTOACTIVATABLE CONJUGATES COMPRISING THEM AND USES THEREOF” (HUN-REN TERMÉSZETTUDOMÁNYI KUTATÓKÖZPONT, priority 2022, published 2026).

Assays:
[1] = Spectroscopic properties of the target conjugates in PBS; assay type: physicochemical; conditions: for ε (molar absorption coefficient): at the absorption maximum
Description: All starting materials were obtained from commercial suppliers and used without further purification. Analytical thin-layer chromatography (TLC) was performed on silica gel 60 F254 precoated aluminum TLC plates from Merck. Flash column chromatography was performed on Teledyne Isco CombiFlash® Rf+ automated flash chromatographer with silica gel (25-40 μm) from Zeochem. NMR spectra were recorded on a Varian Inova 500 MHz spectrometer. Chemical shifts (δ) are given in parts per million (ppm) using solvent signals or TMS as the reference. Coupling constants (J) are reported in Hertz (Hz). Analytical RP-HPLC-UV/Vis-MS measurements were employed using a Shimadzu LCMS-2020 instrument applying a Gemini C18 column (100×2.00 mm I.D.) in which the stationary phase is […] with a pore size of 110 Å. The chromatograms were detected by a UV-Vis diode array (190-800 nm) and an ESI-MS detector. The following linear gradient elution profile was applied, 0 min 0% B; 6.5 min 100% B; 7 min 0% B; 8 min. 0% B) with eluent A (2% HCOOH, 5% MeCN and 93% water) and B (2% HCOOH, 80% MeCN and 18% water) at a flow rate of 1.0 mL min-1 at 30° C. The samples were dissolved in MeCN—water mixtures. Spectroscopic measurements were performed on a Jasco FP 8300 spectrofluorometer. Quartz cuvettes with path length of 1 cm were used.
The spectroscopic properties of the target conjugates were determined in PBS. […] Compounds with Q=O have absorption bands in the green-yellow region while Q=CMe2 derivatives absorb in the red (up to 700 nm). All of the compounds have moderate to high absorption coefficients and significant fluorescence. The spectroscopic details can be found in Table 1. In the table, λmax means absorption maximum; λem means fluorescence emission maximum; s means molar absorption coefficient (at the absorption maximum).

[2] = Uncaging experiments, LED irradiation followed by HPLC-UV-MS; assay type: physicochemical; conditions: green light, 60 s
Description: The uncaging experiments were performed using green (4 W input power, λmax=549 nm half-width: 16 nm, output power: 72 mW), orange (4 W input power, λmax=605 nm half-width: 10 nm, output power: 140 mW) and red (4 W input power, λmax=658 nm half-width: 10 nm, output power: 210 mW) LEDs as light source. Sample solutions were prepared, each containing 1 ml of solvent (90% v/v water-MeCN or 90% PBS-MeCN or 100% methanol for the photochemical quantum yield determination) and 0.1 mM or 0.05 mM concentration of the photoactivatable conjugates. The samples were irradiated for a given time using continuous water cooling for the light source. Then, the samples were transferred to the HPLC-UV-MS system and the chromatograms were recorded. The traces at 195 nm, 254 nm or 369 nm (dependent on the cargo moieties) and at the absorption maxima of the photoremovable protecting groups (530 nm, 570 nm or 640 nm) were compared and the corresponding peaks were integrated and compared to reference calibration sets. The possible photoproducts were identified by their corresponding m/z value and also from the UV/VIS spectra from the DAD-equipped instrument. For the dark stability experiments, the HPLC sample solutions were kept in the dark and chromatograms were recorded multiple times.
The photouncaging was evaluated by HPLC-MS using green (4 W input power, λmax=549 nm half-width: 16 nm, output power: 72 mW), orange (4 W input power, λmax=605 nm half-width: 10 nm, output power: 140 mW) and red (4 W input power, λmax=658 nm half-width: 10 nm, for Q=CMe2 output power: 210 mW) LED irradiation. For all compounds the experiments were performed in 90% water/MeCN mixtures as well as in 90% PBS/MeCN (0.1 mM concentration). In all cases, the irradiation led to the release of the model active agents with significant differences based on the photoremovable protecting group, cargo unit and the connecting chemical moiety as well as on the water content of the uncaging medium. Comparing the green light absorbing target conjugates, irradiation of 39 led to the release of 54% phenylacetic acid in 60 s (FIG. 6b), while 180 s (for 50%) was required for the same result in case of 41. Approximately 65% of phenylacetic acid was released after 180 s of irradiation with orange light from model target conjugate 41 (FIG. 6a). The current state of the art BODIPY derivative (for the structure, see the next section),^20,21 released only 12% phenylacetic acid after irradiation for 1800 s. Contrary to the general expectations that increasing the wavelength diminishes photolysis rates, the uncaging of the redshifted Q=CMe2 derivative 43 was also very effective, reaching >70% release of phenylacetic acid in 120 s after red light irradiation (FIG. 6c). The high efficiency of 43 as a red light-activatable photoremovable protecting group was also compared to a π-extended BODIPY derivative (substrate 7 in REF^21, using methanol as the solvent in a concentration of 0.1 mM), the current state of the art in this region of visible light.
Importantly, except in the case of compounds wherein the connecting chemical moiety was a carbonate moiety (i.e., compound 51, FIG. 6f), the target conjugates were stable in water as well as in PBS for 24 hours in the dark. The stability and uncaging rates of several leaving groups was also assessed. Comparing the most important functional groups (carboxylic acid, amine, phenol, alcohol) in potential active agents connected via the typical linkages in the target conjugates, the carbonate bond was the most labile (compound 51, >70% decomposition in 30 s with red light at 50% power) although the long-term dark stability was poor. None of the other model active agents were released in significant quantities, however, after 24-28 hours in the dark (for dark stability data see FIGS. 6a-6h, right side).
Using HPLC-MS, not only the appearance of the released model active agents could be monitored but also the products of photolysis were detectable. […]

[3] = Uncaging quantum yield determination relative to BODIPY reference; assay type: physicochemical; conditions: for ε × Φu, uncaging cross-section / quantum efficiency: at the wavelength in parentheses beside each value (538-660 nm); for Φu, uncaging quantum yield: calculated from active agent release; for Φu, uncaging quantum yield / Φdeg, degradation quantum yield: green light irradiation; for Φdeg, degradation quantum yield: calculated from the disappearance of the target conjugate
Description: The relative photochemical quantum yields of the uncaging reactions together with the degradation quantum yields were determined from the results of the quantitative HPLC-UV experiments. In all cases, green light irradiation was used since all target conjugates absorbed in this range as well as the reference BODIPY. The photochemical quantum yields were determined using the following equation:
[formula] • where • Φu is the photochemical quantum yield of the sample • Φu,ref is the photochemical quantum yield of the reference • k is the obtained reaction rate constant of the photoreaction of the sample • kref is the obtained reaction rate constant of the photoreaction of the reference • c is the concentration of the sample • cref is the concentration of the reference • V is the volume of the sample • Vref is the volume of the reference • a is the absorption correction factor of the sample • aref is the absorption correction factor of the reference
The absorption correction factors (a) were determined from the molar absorption coefficients and the green LED emission data obtained by the fluorimeter. […] In other words, the transmittance at each wavelength together with the emission data of the light source can be used to calculate the percentage of absorbed photons according to the following equation:
[formula] • where • T(λ) is the transmittance at each wavelength (determined from the molar absorption coefficients) • F(λ) is the LED emission at each wavelength • λmin, λmax is the LED emission range.
The rate constants of the photoreactions were determined by considering the reactions monoexponential with an initial linear phase (up to 10-20% degradation). First, the concentration vs. HPLC-UV peak were determined for each cargo moieties. […] The rate constants were determined for both the reference (with known Φu) and the sample. For reference, a commonly known BODIPY derivative was used with a similar phenylacetic acid-derived cargo unit (substrate 7 from REF^40), Φu=0.15%:
The calculated photochemical quantum yields together with uncaging cross-sections or quantum efficiencies (product of the molar absorption coefficient at a given wavelength, shown in parentheses and the photochemical quantum yield) are shown in Table 2. In the table, Φu is the photochemical quantum yield of the release; Φdeg is the photochemical quantum yield of degradation; ε×Φu is the uncaging cross-section or quantum efficiency of the release at a given wavelength in parentheses.

SK-OV-3 cells = experiment: Cytotoxicity determination, MTT assay, with light irradiation and in the dark; assay type: cell-based, human; conditions: for cell viability: DARK
Description: A viability test was carried out to assess the toxicity of SN38 as well as the photoremovable protecting group-SN38 conjugates X1′-SN38 and X2′-SN38 after light irradiation and in the dark on SKOV3 cells. Cells were transferred into a 48-well plate (Thermo Fisher Scientific, 130187) (4,500 cells/well) and incubated for 20-24 h at 37° C. in a 5% CO2 atmosphere in McCoy's 5A (Modified) Medium, HEPES (Gibco 22330021) supplemented with 10% FBS (Gibco 10500-064), 1% penicillin-streptomycin (Gibco 15140-122). Cells were treated with compounds in the concentration range of 10^−11-10^−4 M for 90 min followed by light irradiation or kept in the dark at 37° C. in 5% CO2 atmosphere. After treatment and irradiation, cells were kept at 37° C. in 5% CO2 atmosphere for 72 hours. After the incubation period, supernatants were replaced with 0.5 mg/ml MTT (3-(4,5-dimethylthiazol-2-yl)-2,5-diphenyltetrazolium bromide; Sigma M5655-1G) solution (in complete DMEM: Dulbecco's modified Eagle's medium (DMEM, Gibco 41965-039), supplemented with 10% FBS (Gibco 10500-064), 1% penicillin-streptomycin (Gibco 15140-122), 1% Glutamax (Gibco 35050-061) and 1% sodium pyruvate (Life Technologies, Gibco 11360-070)) and incubated for 120 min at 37° C. in the dark. The insoluble formazan crystals were dissolved in 250 μl DMSO. Absorbance was detected at 540 nm using a Biotek Synergy 2 Cytation 3 imaging plate reader with Gen5 software version 3.08 (Biotek Winooski, VT, USA). Viability was expressed as percentage (n=3) of the readings of untreated control cells.
To determine phototoxic properties of compounds X1′-SN38 and X2′-SN38, standard MTT assays were performed on SK—OV-3 cells. To irradiate multiple specimens, an LED panel was custom-made for a 48-well plate consisting of 24 LEDs using green (4 W input power, λmax=549 nm half-width: 16 nm, output power: 72 mW), orange (4 W input power, λmax=605 nm half-width: 10 nm, output power: 140 mW) and red (4 W input power, λmax=658 nm half-width: 10 nm, for Q=CMe2 output power: 210 mW) LED irradiation. The board was specifically designed for the plates and offer water cooling to minimize heat shock to cells. Every second well can be irradiated with an individual LED. First, the cytotoxicity of the free active agent, SN38 was determined to be EC50 ^˜6 nM. Treatment of cells with the photoactivatable SN38 derivatives for 72 hours in the absence of light (without washing) produced moderate cytotoxic effects, sigificantly lowering the effectiveness of the active agent. This confirms that SN38 is a suitable candidate for light-activated prodrug applications. […] Reducing the irradiation time down to 10 s still produced significant phototoxicity in higher concentrations (see FIG. 8a for compound X2′-SN38) even assuming incomplete uncaging as a result of the substantial dark stability of compound X2′-SN38.

## CC(OCc1ccccc1)C1=C2C=CC(=[N+]3CCCC3)C=C2C(C)(C)c2cc(N3CCCC3)ccc21.[I-] (centres unmarked) [Compound 35, 1-(10-(1-(benzyloxy)ethyl)-9,9-dimethyl-7-(pyrrolidin-1-yl)anthracen-2 (9H)-ylidene)pyrrolidin-1-ium iodide]
[1]
  λem (fluorescence emission maximum): 659 nm
  λmax (absorption maximum): 635 nm
  ε (molar absorption coefficient): 81 200 M^−1cm^−1

## CC(OC(=O)Cc1ccccc1)c1c2ccc(=O)cc-2oc2cc(N3CCCC3)ccc12 (centres unmarked) [Compound 39, 1-(3-oxo-6-(pyrrolidin-1-yl)-3H-xanthen-9-yl)ethyl 2-phenylacetate]
[1]
  λem (fluorescence emission maximum): 564 nm
  λmax (absorption maximum): 538 nm
  ε (molar absorption coefficient): 22 700 M^−1cm^−1
[2]
  release of phenylacetic acid: 54%
[3]
  ε × Φu, uncaging cross-section / quantum efficiency: 1070 M⁻¹ cm⁻¹
  Φu, uncaging quantum yield: 4.7%
  Φdeg, degradation quantum yield: 6.2%

## CC[N+]1=c2cc3c(cc2C(C)CC1(C)C)=C(C(C)OC(=O)Cc1ccccc1)c1cc2c4c(c1C3(C)C)CCCN4CCC2 (centres unmarked) [Compound 45]
[1]
  λem (fluorescence emission maximum): 680 nm
  λmax (absorption maximum): 660 nm
  ε (molar absorption coefficient): 83 800 M^−1cm^−1
[3]
  ε × Φu, uncaging cross-section / quantum efficiency: 1390 M⁻¹ cm⁻¹
  Φu, uncaging quantum yield: 1.6%
  Φdeg, degradation quantum yield: 2.6%

## CC(OC(=O)N1CCN(c2ccccc2)CC1)C1=C2C=CC(=[N+]3CCCC3)C=C2C(C)(C)c2cc(N3CCCC3)ccc21 (centres unmarked) [Compound 49, 1-(9,9-dimethyl-10-(1-((4-phenylpiperazine-1-carbonyl)oxy)ethyl)-7-(pyrrolidin-1-yl)anthracen-2 (9H)-ylidene)pyrrolidin-1-ium]
[1]
  λem (fluorescence emission maximum): 673 nm
  λmax (absorption maximum): 637 nm
  ε (molar absorption coefficient): 75 100 M^−1cm^−1
[3]
  ε × Φu, uncaging cross-section / quantum efficiency: 690 M⁻¹ cm⁻¹
  Φu, uncaging quantum yield: 0.92%
  Φdeg, degradation quantum yield: 1.7%

## CCc1c2c(nc3ccc(O)cc13)-c1cc3c(c(=O)n1C2)COC(=O)[C@]3(O)CC [SN38, 7-ethyl-10-hydroxycamptothecin, reference compound]
SK-OV-3 cells; 50 nM
  cell viability: 29%
SK-OV-3 cells; 100 nM
  cell viability: 27%
SK-OV-3 cells; 200 nM
  cell viability: 30%
SK-OV-3 cells; dark, 72 h, MTT, read-out: Dark EC50 values
  EC50: 6.2 nM
